The text below walks through data of article PMC6399351, “Cationic Intrinsically Disordered Antimicrobial Peptides (CIDAMPs) Represent a New Paradigm of Innate Defense with a Potential for Novel Anti-Infectives” (Scientific Reports, 2019).

Values after ≈ are worked out from the molar mass of the structure shown. Read-outs that look alike come from different tables or passages of the source. Square brackets hold non-standard residues; d marks the D form. Ends that are not written are not given here. Peptide text beside a SMILES is read from it. * marks the point of attachment. Palmitoyl = CCCCCCCCCCCCCCCC(=O)*; Dab = NCC[C@H](N)C(=O)O; Dap = NC[C@H](N)C(=O)O Some results are limits rather than exact numbers.

Assay [1] concerns Acinetobacter baumannii ATCC 19606. Put plainly: CO-ADD MIC, broth microdilution (CLSI). In kind it is cell-based. The following applies: Mueller–Hinton broth, 5 × 10^5 CFU/mL, 18 h 37 °C, by CO-ADD. An excerpt:
(§1) They were defined as the lowest peptide
(§2) Further details of the screening
Background: Dilution methods test growth across graded concentrations, often in twofold steps.

Assay [2] relates to Pseudomonas aeruginosa ATCC 27853. Put plainly: CO-ADD MIC, broth microdilution (CLSI). In kind it is cell-based. The following applies: Mueller–Hinton broth, 5 × 10^5 CFU/mL, 18 h 37 °C, by CO-ADD.
Source text: as §1, §2

The test system of assay [3] is Candida albicans ATCC 90028. Kind of assay: CO-ADD MIC, antifungal assay (CLSI). Format: cell-based. The settings on record: Yeast Nitrogen Base broth, 24 h 35 °C, by CO-ADD. The method, then:
(§3) Fungi strains were cultured for 3 days on Yeast Extract-Peptone Dextrose (YPD) agar at 30 °C. A yeast suspension of 1 × 10^6 to 5 × 10^6 cells/mL (as determined by OD530) was prepared from five colonies. These stock suspensions were diluted with Yeast Nitrogen Base (YNB) broth to a final concentration of 2.5 × 10^3 CFU/mL. […] Plates were covered and incubated at 35 °C for 24 h without shaking.

Assay [4] relates to Cryptococcus neoformans ATCC 208821. Put plainly: CO-ADD MIC, antifungal assay (CLSI). The following applies: Yeast Nitrogen Base broth, 24 h 35 °C, by CO-ADD. In kind it is cell-based. On the procedure:
as §3

The next assay has as its system E. coli ATCC 25922. Put plainly: CO-ADD MIC, broth microdilution (CLSI). Format: cell-based, Escherichia coli. The settings on record: Mueller–Hinton broth, 5 × 10^5 CFU/mL, 18 h 37 °C, by CO-ADD.
Source text: as §1, §2

The subject of a further assay is S. aureus ATCC 6538. The following applies: CFU assay.
Assay [5] deals with Klebsiella pneumonia ATCC 700603. The following applies: MDR strain; CLSI, Mueller–Hinton broth, 5 × 10^5 CFU/mL, 18 h 37 °C, by CO-ADD.
The test system of assay [6] is Staphylococcus aureus ATCC 43300. The following applies: MRSA; CLSI, Mueller–Hinton broth, 5 × 10^5 CFU/mL, 18 h 37 °C, by CO-ADD.
Setting [7] is: 10 mM NaP, pH 5.5, 0.25% glucose.

`CCCCCCCCCCCCCCCC(=O)NCC(=O)N[C@@H](CCN)C(=O)NCC(=O)N[C@@H](CCN)C(=O)O` [Pal-G-Dab4] (Palmitoyl-G[Dab]G[Dab]-OH): the “Minimal inhibitory concentration (MIC)” value in assay [1] is 32 µg/mL (≈ 56.1 µM); in assay [2], above 32 µg/mL; in assay [3], above 32 µg/mL; in assay [4], 16 µg/mL (≈ 28 µM); in the assay on E. coli ATCC 25922, above 32 µg/mL; in assay [5], above 32 µg/mL. The “Minimal inhibitory concentration (MIC)” value in assay [6] is listed as 32 µg/mL (≈ 56.1 µM). This compound also had an LD90 with S. aureus ATCC 6538 (setting [7]) of 4.7 µg/mL.
Regarding `CCCCCCCCCCCCCCCC(=O)NCC(=O)N[C@@H](CN)C(=O)NCC(=O)N[C@@H](CN)C(=O)O` [Pal-G-Dap4] (Palmitoyl-G[Dap]G[Dap]-OH), the “Minimal inhibitory concentration (MIC)” value is above 32 µg/mL in assay [1]; above 32 µg/mL in assay [2]; 8 µg/mL (≈ 14.7 µM) in assay [3]; 1 µg/mL (≈ 1.84 µM) in assay [4]; above 32 µg/mL in the assay on E. coli ATCC 25922; above 32 µg/mL in assay [5]. Also, the “Minimal inhibitory concentration (MIC)” value in assay [6] is reported as 8 µg/mL (≈ 14.7 µM). In the assay with S. aureus ATCC 6538 (setting [7]), this compound displayed an LD90 of 2.35 µg/mL.
`CCCCCCCCCCCCCCCC(=O)NCC(=O)N[C@@H](CCCNC(=N)N)C(=O)NCC(=O)N[C@@H](CCCNC(=N)N)C(=O)O` [Pal-GR4] (Palmitoyl-GRGR-OH): the “Minimal inhibitory concentration (MIC)” value in assay [1] was above 32 µg/mL; in assay [2], above 32 µg/mL; in assay [3], 8 µg/mL (≈ 11.7 µM); in assay [4], 8 µg/mL (≈ 11.7 µM); with E. coli ATCC 25922, above 32 µg/mL; in assay [5] it was above 32 µg/mL. Also, the “Minimal inhibitory concentration (MIC)” value in assay [6] is listed as 8 µg/mL (≈ 11.7 µM). In addition, the results for the LD90 in the assay on S. aureus ATCC 6538 (setting [7]) and with S. aureus ATCC 6538 (value in molar units) were 2.35 µg/mL and 3.4 µM, respectively. The “LD99 (concentration of peptide which kills 99.0% of inoculum)” value in the assay on S. aureus ATCC 6538 (setting [7]) was 4.7 µg/mL.
In the case of `CCCCCCCCCCCCCCCC(=O)NCC(=O)N[C@@H](CCCNC(=N)N)C(=O)N[C@@H](CCCNC(=N)N)C(=O)NCC(=O)NCC(=O)N[C@@H](CCCNC(=N)N)C(=O)O` [Pal-GR6] (Palmitoyl-GRRGGR-OH), the “Minimal inhibitory concentration (MIC)” value is given as above 32 µg/mL in assay [1]; above 32 µg/mL in assay [2]; above 32 µg/mL in assay [3]; 16 µg/mL (≈ 17.9 µM) in assay [4]; above 32 µg/mL in the assay on E. coli ATCC 25922; above 32 µg/mL in assay [5]. For the same compound, in assay [6], the “Minimal inhibitory concentration (MIC)” value is given as 16 µg/mL (≈ 17.9 µM). In addition, the LD90 with S. aureus ATCC 6538 (setting [7]) worked out at 2.35 µg/mL. Also, the “LD99 (concentration of peptide which kills 99.0% of inoculum)” value in the assay with S. aureus ATCC 6538 (setting [7]) is given as 4.7 µg/mL.
With `CCCCCCCCCCCCCCCC(=O)NCC(=O)N[C@@H](CCCNC(=N)N)C(=O)N[C@@H](CCCNC(=N)N)C(=O)NCC(=O)NCC(=O)N[C@@H](CCCNC(=N)N)C(=O)NCC(=O)NCC(=O)N[C@@H](CCCNC(=N)N)C(=O)O` [Pal-GR9] (Palmitoyl-GRRGGRGGR-OH), the “Minimal inhibitory concentration (MIC)” value (in assay [1]; in assay [2]; in assay [3]; in assay [4]; in the assay on E. coli ATCC 25922; in assay [5]) was above 32 µg/mL each time. Further, in assay [6], the “Minimal inhibitory concentration (MIC)” value came to 8 µg/mL (≈ 6.86 µM). Further, the LD90 in the assay with S. aureus ATCC 6538 (setting [7]) is 1.18 µg/mL. Further, the “LD99 (concentration of peptide which kills 99.0% of inoculum)” value with S. aureus ATCC 6538 (setting [7]) was determined as 4.7 µg/mL.
For the compound `CCCCCCCCCCCCCCCC(=O)NCC(=O)N[C@@H](CCCNC(=N)N)C(=O)N[C@@H](CCCNC(=N)N)C(=O)NCC(=O)NCC(=O)N[C@@H](CCCNC(=N)N)C(=O)NCC(=O)NCC(=O)N[C@@H](CCCNC(=N)N)C(=O)NCC(=O)N[C@@H](CCCNC(=N)N)C(=O)O` [Pal-GR11] (Palmitoyl-GRRGGRGGRGR-OH), the “Minimal inhibitory concentration (MIC)” value in assay [1] was 8 µg/mL (≈ 5.8 µM); in assay [2], 16 µg/mL (≈ 11.6 µM); in assay [3] it was 4 µg/mL (≈ 2.9 µM); in assay [4], 4 µg/mL (≈ 2.9 µM); in the assay with E. coli ATCC 25922 it was 8 µg/mL (≈ 5.8 µM); in assay [5] it was above 32 µg/mL. The “Minimal inhibitory concentration (MIC)” value in assay [6] amounted to 4 µg/mL (≈ 2.9 µM). Also, in the assay on S. aureus ATCC 6538 (10 mM NaP, pH 7.3, 1% TSB), the LD90 amounted to 0.3 µg/mL. In addition, the “LD99 (concentration of peptide which kills 99.0% of inoculum)” value with S. aureus ATCC 6538 (10 mM NaP, pH 7.3, 1% TSB) worked out at 1.18 µg/mL.
Consider `CCCCCCCCCCCCCCCC(=O)N[C@@H](Cc1c[nH]cn1)C(=O)NCC(=O)N[C@@H](CO)C(=O)N[C@@H](CCCNC(=N)N)C(=O)N[C@@H](CO)C(=O)NCC(=O)N[C@@H](CCC(N)=O)C(=O)N[C@@H](CO)C(=O)N[C@@H](CO)C(=O)N[C@@H](CCCNC(=N)N)C(=O)NCC(=O)N[C@@H](CCC(=O)O)C(=O)N[C@@H](CCCNC(=N)N)C(=O)N[C@@H](Cc1c[nH]cn1)C(=O)NCC(=O)N[C@@H](CO)C(=O)N[C@@H](CO)C(=O)N[C@@H](CO)C(=O)NCC(=O)N[C@@H](CO)C(=O)N[C@@H](CO)C(=O)N[C@@H](CO)C(=O)N[C@@H](Cc1c[nH]cn1)C(=O)O` [Pal-HR 1-11] (Palmitoyl-HGSRSGQSSRGERHGSSSGSSSH-OH), for which the “Minimal inhibitory concentration (MIC)” value (in assay [1]; in assay [2]; in assay [3]; in assay [4]; in the assay with E. coli ATCC 25922; in assay [5]) was above 32 µg/mL each time. Further, the “Minimal inhibitory concentration (MIC)” value in assay [6] turned out to be 32 µg/mL (≈ 12.6 µM). Moreover, in the assay on S. aureus ATCC 6538 (setting [7]), the LD90 turned out to be 2.35 µg/mL.
Consider `CCCCCCCCCCCCCCCC(=O)NCC(=O)N[C@@H](CCCNC(=N)N)C(=O)N[C@@H](CCCNC(=N)N)C(=O)NCC(=O)N[C@@H](CO)C(=O)NCC(=O)N[C@@H](CC(C)C)C(=O)NCC(=O)N[C@@H](CCCNC(=N)N)C(=O)N[C@@H](CO)C(=O)N[C@@H](CO)C(=O)N[C@@H](CO)C(=O)N[C@@H](CCCNC(=N)N)C(=O)O` [Pal-HR 1-18-3H3R-GR13] (Palmitoyl-GRRGSGLGRSSSR-OH), for which the “Minimal inhibitory concentration (MIC)” value in assay [1] is 16 µg/mL (≈ 10.2 µM); in assay [2], above 32 µg/mL; in assay [3], above 32 µg/mL; in assay [4] it was 16 µg/mL (≈ 10.2 µM); with E. coli ATCC 25922, above 32 µg/mL; in assay [5], above 32 µg/mL. Moreover, in assay [6], the “Minimal inhibitory concentration (MIC)” value was 16 µg/mL (≈ 10.2 µM). In the assay with S. aureus ATCC 6538 (setting [7]), the LD90 turned out to be 2.35 µg/mL.
On to `CCCCCCCCCCCCCCCC(=O)N[C@@H](CCCNC(=N)N)C(=O)NCC(=O)N[C@@H](CO)C(=O)N[C@@H](CCCNC(=N)N)C(=O)N[C@@H](CO)C(=O)NCC(=O)N[C@@H](CCC(N)=O)C(=O)N[C@@H](CO)C(=O)N[C@@H](CO)C(=O)N[C@@H](CCCNC(=N)N)C(=O)NCC(=O)N[C@@H](CCC(=O)O)C(=O)N[C@@H](CCCNC(=N)N)C(=O)N[C@@H](CCCNC(=N)N)C(=O)NCC(=O)N[C@@H](CO)C(=O)N[C@@H](CO)C(=O)N[C@@H](CO)C(=O)NCC(=O)N[C@@H](CO)C(=O)N[C@@H](CO)C(=O)N[C@@H](CO)C(=O)N[C@@H](CCCNC(=N)N)C(=O)O` [Pal-HR-1-11-3H3R] (Palmitoyl-RGSRSGQSSRGERRGSSSGSSSR-OH), for which the “Minimal inhibitory concentration (MIC)” value in assay [1] is reported as 8 µg/mL (≈ 3.07 µM); in assay [2] it was above 32 µg/mL; in assay [3], 32 µg/mL (≈ 12.3 µM); in assay [4], 32 µg/mL (≈ 12.3 µM); in the assay on E. coli ATCC 25922, 32 µg/mL (≈ 12.3 µM); in assay [5], above 32 µg/mL. Moreover, the “Minimal inhibitory concentration (MIC)” value in assay [6] is given as 32 µg/mL (≈ 12.3 µM). For the same compound, the LD90 in the assay on S. aureus ATCC 6538 (setting [7]) was found to be 0.59 µg/mL.
GRRGGRGGRGRGR [GR13]: the “Minimal inhibitory concentration (MIC)” value (in assay [1]; in assay [2]; in assay [3]; in assay [4]; in the assay on E. coli ATCC 25922; in assay [5]) was above 32 µg/mL in each case. In assay [6], the “Minimal inhibitory concentration (MIC)” value is above 32 µg/mL. For the same compound, the LD90 was determined as 75 µg/mL in the assay on S. aureus ATCC 6538 (setting [7]) and 75 µg/mL in the assay with S. aureus ATCC 6538 (10 mM NaP, pH 7.0, 0.25% glucose).
Regarding SHHRHFRSHQCRR [LCE-3C55-67], the “Minimal inhibitory concentration (MIC)” value in assay [1] was above 32 µg/mL; in assay [2] it was above 32 µg/mL; in assay [3], above 32 µg/mL; in assay [4], 8 µg/mL; in the assay with E. coli ATCC 25922, above 32 µg/mL; in assay [5] it was above 32 µg/mL. Also, the “Minimal inhibitory concentration (MIC)” value in assay [6] was found to be 32 µg/mL. The compound further had an LD90 in the assay on S. aureus ATCC 6538 (setting [7]) of 2.35 µg/mL.
